Assay results: article PMC2924936 (ACS chemical biology, 2010)
Where two headings read alike, the source gives them in different places.

Experiments:
[1] = target: T1, yeast NADPH-cytochrome P450 reductase (yCPR) (Saccharomyces cerevisiae, UniProt P16603); assay: SPR; type: binding
T1 sequence (P16603 34-691): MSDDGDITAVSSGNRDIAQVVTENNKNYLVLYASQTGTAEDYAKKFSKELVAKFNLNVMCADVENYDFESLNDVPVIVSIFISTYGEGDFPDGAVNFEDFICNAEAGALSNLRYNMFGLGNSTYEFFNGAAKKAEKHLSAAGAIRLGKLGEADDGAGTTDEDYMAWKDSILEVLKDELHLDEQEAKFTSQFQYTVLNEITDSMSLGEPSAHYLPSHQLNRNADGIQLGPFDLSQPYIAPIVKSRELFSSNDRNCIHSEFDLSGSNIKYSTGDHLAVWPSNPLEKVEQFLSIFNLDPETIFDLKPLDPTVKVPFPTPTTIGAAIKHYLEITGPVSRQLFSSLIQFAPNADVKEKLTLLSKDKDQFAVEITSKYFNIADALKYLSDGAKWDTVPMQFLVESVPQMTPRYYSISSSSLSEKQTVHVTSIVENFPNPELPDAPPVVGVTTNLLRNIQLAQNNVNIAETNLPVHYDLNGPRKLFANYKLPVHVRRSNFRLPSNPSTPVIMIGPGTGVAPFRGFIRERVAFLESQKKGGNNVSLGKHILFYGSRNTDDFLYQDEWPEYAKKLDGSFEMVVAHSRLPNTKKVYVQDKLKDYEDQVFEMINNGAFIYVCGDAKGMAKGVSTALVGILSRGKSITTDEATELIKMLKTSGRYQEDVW

[2] = target: T1, yeast NADPH-cytochrome P450 reductase (yCPR); assay: SPR; type: binding; remark: listed apart in the source

Kd [1] | Kd [2] | SMILES
300 nM |  | Cc1cc2nc3c(=O)[nH]c(=O)nc-3n(C[C@H](O)[C@H](O)[C@H](O)COP(=O)(O)O)c2cc1C [compound 7, FMN]
 | 2300 nM | Cc1cc2nc3c(=O)[nH]c(=O)nc-3n(C[C@H](O)[C@H](O)[C@H](O)COP(=O)(O)OP(=O)(O)OC[C@H]3O[C@@H](n4cnc5c(N)ncnc54)[C@H](O)[C@@H]3O)c2cc1C [compound 8, FAD]
